Results on 2 compounds are retold here after patent US11905294B2, “Imidazo[1,5-a]pyrazine derivatives as PI3Kδ inhibitors” (BEIGENE, LTD., priority 2017, dated 2024).

For series [1], the target named is PI3K (p110α/p85α) (Homo sapiens, UniProt P42336). Description: PI3Kα assay (ADP-Glo Kinase Assay). Format: biochemical. The following applies: recombinant enzyme; IC50 (nM) or max inhibition (%) at 0.5 μM.
The target of series [2] is PI3K (p110β/p85α) (Homo sapiens, UniProt P42338). Briefly: PI3Kβ assay (ADP-Glo Kinase Assay). The note with it: read-out: Enzyme activity IC50 PI3Kβ. Format: biochemical.
Chain of PI3K (p110β/p85α) (P42338 whole entry): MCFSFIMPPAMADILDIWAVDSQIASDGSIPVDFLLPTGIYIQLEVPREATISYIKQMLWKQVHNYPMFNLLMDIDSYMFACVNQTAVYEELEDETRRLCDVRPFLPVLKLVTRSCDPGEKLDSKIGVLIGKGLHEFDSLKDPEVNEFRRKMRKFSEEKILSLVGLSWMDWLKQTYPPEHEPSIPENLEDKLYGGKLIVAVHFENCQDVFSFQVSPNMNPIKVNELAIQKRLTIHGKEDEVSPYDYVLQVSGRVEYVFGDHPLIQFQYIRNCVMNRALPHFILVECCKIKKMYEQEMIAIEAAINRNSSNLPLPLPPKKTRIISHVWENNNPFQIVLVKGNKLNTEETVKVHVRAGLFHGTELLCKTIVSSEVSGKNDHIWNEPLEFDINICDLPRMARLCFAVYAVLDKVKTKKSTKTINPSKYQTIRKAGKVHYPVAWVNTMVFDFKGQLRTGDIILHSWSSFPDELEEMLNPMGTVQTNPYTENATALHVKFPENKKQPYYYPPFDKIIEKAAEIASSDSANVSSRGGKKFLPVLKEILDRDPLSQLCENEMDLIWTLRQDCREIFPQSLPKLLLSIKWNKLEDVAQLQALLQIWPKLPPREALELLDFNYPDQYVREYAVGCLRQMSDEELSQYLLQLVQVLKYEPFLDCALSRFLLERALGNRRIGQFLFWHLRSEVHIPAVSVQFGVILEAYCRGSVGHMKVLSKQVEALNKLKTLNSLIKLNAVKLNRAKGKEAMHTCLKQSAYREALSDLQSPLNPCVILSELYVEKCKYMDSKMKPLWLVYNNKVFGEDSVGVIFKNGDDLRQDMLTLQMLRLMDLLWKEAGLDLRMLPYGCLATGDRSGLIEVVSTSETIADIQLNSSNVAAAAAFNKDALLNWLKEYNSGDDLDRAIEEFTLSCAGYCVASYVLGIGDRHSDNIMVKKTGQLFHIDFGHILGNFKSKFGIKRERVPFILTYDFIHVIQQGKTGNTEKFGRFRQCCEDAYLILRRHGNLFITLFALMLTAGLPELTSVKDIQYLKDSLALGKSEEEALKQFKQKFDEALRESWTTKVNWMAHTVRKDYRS
Chain of PI3K (p110β/p85α) (P27986 whole entry partner): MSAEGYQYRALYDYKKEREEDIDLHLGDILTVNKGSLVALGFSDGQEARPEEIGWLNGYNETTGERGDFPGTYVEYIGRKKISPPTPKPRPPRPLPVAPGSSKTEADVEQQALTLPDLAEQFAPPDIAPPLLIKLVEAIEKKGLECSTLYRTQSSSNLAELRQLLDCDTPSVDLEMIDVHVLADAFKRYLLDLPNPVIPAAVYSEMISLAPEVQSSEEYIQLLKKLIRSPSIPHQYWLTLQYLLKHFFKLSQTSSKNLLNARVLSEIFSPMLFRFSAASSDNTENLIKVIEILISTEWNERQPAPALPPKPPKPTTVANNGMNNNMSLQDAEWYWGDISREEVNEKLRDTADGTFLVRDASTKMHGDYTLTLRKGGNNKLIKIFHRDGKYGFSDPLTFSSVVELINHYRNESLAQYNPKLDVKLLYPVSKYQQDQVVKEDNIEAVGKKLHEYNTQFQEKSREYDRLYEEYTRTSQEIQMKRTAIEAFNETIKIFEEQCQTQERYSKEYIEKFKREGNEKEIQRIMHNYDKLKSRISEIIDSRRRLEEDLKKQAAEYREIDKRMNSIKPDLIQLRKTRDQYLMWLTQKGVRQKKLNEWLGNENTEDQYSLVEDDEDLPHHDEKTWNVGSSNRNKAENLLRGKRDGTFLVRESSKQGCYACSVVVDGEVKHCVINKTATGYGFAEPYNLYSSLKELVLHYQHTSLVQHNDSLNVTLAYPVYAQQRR
Series [3] in a line: Pharmacokinetic properties in Sprague-Dawley rats after intravenous (IV) and oral (PO) administration. The note with it: rat; for AUC(0-inf) / clearance / half-life / Vd / Cmax / Tmax / bioavailability: male, Sprague-Dawley, plasma; for Vd: read-out: VdSS. Format: in vivo. As to the method:
III. Pharmacokinetic Properties of Compounds in Sprague-Dawley Rats After Intravenous (IV) and Oral Administrations (PO)
The injection dosing solution was prepared as follows: 1.0 mg of a test compound was weighed and dissolved in 0.32 mL of dimethyl acetamide (DMA). The solution was then further diluted by 0.36 mL of ethanol and 0.32 mL of propylene glycol. The final concentration of the test compound was 1.0 mg·mL^−1.
The oral dosing solution was prepared as follows: 5.0 mg of a test compound was weighed and dispersed in […] of 0.5% methyl cellulose (MC). The final concentration of the test compound is 1 mg·mL^−1.
Male Sprague-Dawley rats (also summarized in Table 2) were housed in solid bottom polypropylene cages with sterilized bedding and receive sterilized diet and sterilized water. The room was controlled and monitored for humidity (targeted mean range 40% to 70%) and temperature (targeted mean range 18° C. to 26° C.) with 10 to 20 air changes/hour. The light cycle was maintained at 12-h light and 12-h dark. Only animals that appeared to be healthy were selected for this study based on overall health, body weight, or other relevant information.
Three rats were given a single IV dose of 1 mg·kg^−1 via tail vein injection and other three rats were given a single oral dose of 5 or 10 mg·kg^−1. The dosing solutions were freshly prepared prior to dose administration. The actual body weights and actual volume injected were recorded accordingly. Four hours after dosing, the rats were allowed to intake food.
Blood samples (˜150 μL) were collected at different times from the jugular vein catheter into EDTA-K2 coated tubes. Whole blood was processed by centrifugation at 3000 g for 10 min. Plasma samples were collected and kept at −80° C. freezer prior to analysis. The blood sampling time was recorded accordingly.
The dose samples of IV and PO were diluted with MeOH: H2O (4:1, v/v) to achieve the concentration of 2 μg·mL^−1, respectively. Then, 2.5 μL of the diluted samples were added with 47.5 μL blank plasma, and then were handled as the plasma sample procedure. An aliquot of 10 μL of the mixture was injected into the LC-MS/MS system.

Series [4] concerns the target PI3K (p110γ) (Homo sapiens, UniProt P48736). Briefly: PI3Kγ assay (ADP-Glo Kinase Assay). The note with it: recombinant enzyme; IC50 (nM) or max inhibition (%) at 0.5 μM. Format: biochemical.
The target of series [5] is PI3K (p110δ/p85α) (Homo sapiens, UniProt O00329). Description: PI3Kδ assay (ADP-Glo Kinase Assay). Format: biochemical. The following applies: recombinant enzyme; IC50 (nM) or max inhibition (%) at 0.5 μM. The procedure, abridged: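 Recombinant p110δ/p85α with lipid substrate and serially diluted compound, 0.5 hr RT preincubation; ATP-started reaction ran 1 hr at RT. ADP formed read by ADP-Glo luminescence; IC50 from four-parameter logistic fit of residual activity.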
Chain of PI3K (p110δ/p85α) (O00329 whole entry): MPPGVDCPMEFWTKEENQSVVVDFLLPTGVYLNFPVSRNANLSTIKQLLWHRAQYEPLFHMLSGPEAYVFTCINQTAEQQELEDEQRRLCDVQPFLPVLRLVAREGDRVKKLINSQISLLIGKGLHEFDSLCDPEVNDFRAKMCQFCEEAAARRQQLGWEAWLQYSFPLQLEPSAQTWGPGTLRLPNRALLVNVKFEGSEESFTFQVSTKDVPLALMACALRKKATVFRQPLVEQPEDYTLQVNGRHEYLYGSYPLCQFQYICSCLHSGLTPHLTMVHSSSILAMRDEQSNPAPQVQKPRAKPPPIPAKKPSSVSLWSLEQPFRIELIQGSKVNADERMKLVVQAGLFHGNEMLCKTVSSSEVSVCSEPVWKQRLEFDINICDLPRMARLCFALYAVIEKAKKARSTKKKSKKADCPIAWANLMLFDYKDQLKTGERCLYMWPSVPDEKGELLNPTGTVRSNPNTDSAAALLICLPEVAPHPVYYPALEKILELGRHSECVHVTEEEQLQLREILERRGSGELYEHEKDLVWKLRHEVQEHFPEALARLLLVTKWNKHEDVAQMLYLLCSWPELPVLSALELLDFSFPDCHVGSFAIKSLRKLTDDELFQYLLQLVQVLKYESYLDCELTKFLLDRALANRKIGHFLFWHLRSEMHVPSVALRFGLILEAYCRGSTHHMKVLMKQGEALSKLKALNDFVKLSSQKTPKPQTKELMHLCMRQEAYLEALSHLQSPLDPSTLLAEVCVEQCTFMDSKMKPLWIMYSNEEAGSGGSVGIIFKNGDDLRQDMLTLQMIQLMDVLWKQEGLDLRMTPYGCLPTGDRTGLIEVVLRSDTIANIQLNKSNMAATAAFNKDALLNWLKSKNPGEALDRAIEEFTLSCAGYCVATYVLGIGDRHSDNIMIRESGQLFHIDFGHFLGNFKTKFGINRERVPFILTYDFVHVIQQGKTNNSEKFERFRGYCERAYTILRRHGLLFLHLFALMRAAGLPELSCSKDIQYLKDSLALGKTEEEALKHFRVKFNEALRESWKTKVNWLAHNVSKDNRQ
Chain of PI3K (p110δ/p85α) (P27986 whole entry partner): as the sequence (P27986 whole entry partner) above

Chain of PI3K (p110α/p85α) (P42336 whole entry): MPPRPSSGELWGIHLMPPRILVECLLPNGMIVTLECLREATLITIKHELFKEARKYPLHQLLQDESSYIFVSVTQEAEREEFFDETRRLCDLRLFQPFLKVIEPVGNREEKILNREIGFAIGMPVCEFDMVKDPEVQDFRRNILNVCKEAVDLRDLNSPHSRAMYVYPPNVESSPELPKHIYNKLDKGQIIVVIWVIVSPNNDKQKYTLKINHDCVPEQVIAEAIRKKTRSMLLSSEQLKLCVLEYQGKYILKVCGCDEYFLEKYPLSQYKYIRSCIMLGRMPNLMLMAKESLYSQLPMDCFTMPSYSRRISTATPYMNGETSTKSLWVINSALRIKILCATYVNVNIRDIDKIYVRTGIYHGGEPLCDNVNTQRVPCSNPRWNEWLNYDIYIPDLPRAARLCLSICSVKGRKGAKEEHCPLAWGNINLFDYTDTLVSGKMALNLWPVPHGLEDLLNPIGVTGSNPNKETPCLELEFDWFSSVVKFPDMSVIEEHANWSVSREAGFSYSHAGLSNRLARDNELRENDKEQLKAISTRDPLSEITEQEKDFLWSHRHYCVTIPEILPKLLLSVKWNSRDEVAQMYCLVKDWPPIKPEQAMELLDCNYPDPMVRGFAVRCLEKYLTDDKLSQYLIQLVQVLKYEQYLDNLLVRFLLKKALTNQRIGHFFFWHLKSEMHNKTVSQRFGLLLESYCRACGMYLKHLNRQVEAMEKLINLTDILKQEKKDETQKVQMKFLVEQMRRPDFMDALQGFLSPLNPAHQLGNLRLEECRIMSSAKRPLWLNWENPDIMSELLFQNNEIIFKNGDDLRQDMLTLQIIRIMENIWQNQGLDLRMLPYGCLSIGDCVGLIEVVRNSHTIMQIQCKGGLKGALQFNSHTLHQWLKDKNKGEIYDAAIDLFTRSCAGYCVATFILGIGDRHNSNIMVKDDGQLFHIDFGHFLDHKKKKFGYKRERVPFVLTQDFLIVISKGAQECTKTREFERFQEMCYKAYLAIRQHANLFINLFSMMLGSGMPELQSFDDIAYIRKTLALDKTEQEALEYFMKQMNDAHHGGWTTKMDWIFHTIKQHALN
Chain of PI3K (p110α/p85α) (P27986 whole entry partner): as the sequence (P27986 whole entry partner) above
Chain of PI3K (p110γ) (P48736 whole entry): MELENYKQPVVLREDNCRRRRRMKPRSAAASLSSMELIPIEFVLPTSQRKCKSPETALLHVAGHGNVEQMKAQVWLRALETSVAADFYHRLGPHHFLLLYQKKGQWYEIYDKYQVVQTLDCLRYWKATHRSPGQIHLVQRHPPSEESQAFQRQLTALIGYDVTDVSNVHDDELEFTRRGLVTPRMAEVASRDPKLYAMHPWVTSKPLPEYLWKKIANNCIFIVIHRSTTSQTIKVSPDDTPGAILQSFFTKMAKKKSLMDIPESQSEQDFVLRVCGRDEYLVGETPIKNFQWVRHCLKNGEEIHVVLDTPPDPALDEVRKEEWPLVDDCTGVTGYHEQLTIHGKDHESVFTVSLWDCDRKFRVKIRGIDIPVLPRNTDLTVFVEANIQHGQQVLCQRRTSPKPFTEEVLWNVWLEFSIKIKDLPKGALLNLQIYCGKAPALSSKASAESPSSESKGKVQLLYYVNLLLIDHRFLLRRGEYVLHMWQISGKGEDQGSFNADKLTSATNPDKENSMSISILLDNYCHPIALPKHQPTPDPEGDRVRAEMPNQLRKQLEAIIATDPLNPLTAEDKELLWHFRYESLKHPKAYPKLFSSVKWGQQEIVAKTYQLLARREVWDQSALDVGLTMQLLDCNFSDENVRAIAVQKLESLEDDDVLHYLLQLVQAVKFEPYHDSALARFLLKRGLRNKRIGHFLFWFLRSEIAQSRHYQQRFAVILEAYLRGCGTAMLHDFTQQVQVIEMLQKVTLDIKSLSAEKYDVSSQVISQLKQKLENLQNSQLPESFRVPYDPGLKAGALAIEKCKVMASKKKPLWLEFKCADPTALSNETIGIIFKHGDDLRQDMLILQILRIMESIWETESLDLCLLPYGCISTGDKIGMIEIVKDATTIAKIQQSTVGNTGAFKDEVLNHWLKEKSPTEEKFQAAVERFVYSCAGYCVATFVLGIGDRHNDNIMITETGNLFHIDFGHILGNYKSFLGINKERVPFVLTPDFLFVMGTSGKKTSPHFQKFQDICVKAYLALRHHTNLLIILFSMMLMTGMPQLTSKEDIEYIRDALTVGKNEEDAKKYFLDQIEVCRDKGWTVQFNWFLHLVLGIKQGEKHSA

As for `Cc1nc([C@@H](C)c2cc(Cl)c(F)c(C(=O)N[C@H]3CC[C@H](O)CC3)c2OC(C)C)n2ccnc(N)c12` [Compound 60, 3((S)-1-(8-amino-1-methylimidazo[1,5-a]pyrazin-3-yl)ethyl)-5-chloro-6-fluoro-N-((trans)-4-hydroxycyclohexyl)-2-isopropoxybenzamide], the half-inhibitory concentration (IC50) in series [1] worked out at 11000 nM. Besides, the half-maximal inhibitory concentration (IC50) in series [2] worked out at 35 µM. In addition, in series [3] (1 mg/kg, IV 1 mpk), the area under the curve AUC(0-inf) was 218 ng·h/mL, the clearance came out at 76.6 mL/min/kg, the half-life is 0.6 h and the Vd was found to be 3.3 L/kg. In addition, in series [3] (5 mg/kg, PO 5 mpk), the area under the curve AUC(0-inf) worked out at 159 ng·h/mL, the Cmax amounted to 133 ng/mL, the Tmax turned out to be 0.3 h and the half-life was 2 h. This compound also gave a bioavailability in series [3] (5 mg·kg^−1, PO 5 mpk vs IV 1 mpk) of 14.6%. Besides, the IC50 in series [4] was found to be 6300 nM. The IC50 in series [5] was determined as 0.95 nM.

For `Cc1nc([C@@H](C)c2cc(Cl)c(F)c(C(=O)NCCN3CCN(C)CC3)c2OC(C)C)n2ccnc(N)c12` [Compound 73, (S)-3-(1-(8-amino-1-methylimidazo[1,5-a]pyrazin-3-yl)ethyl)-5-chloro-6-fluoro-2-isopropoxy-N-(2-(4-methylpiperazin-1-yl)ethyl)benzamide], the IC50 in series [1] turned out to be 14000 nM. In series [2], the IC50 was determined as 14 µM. For the same compound, in series [3] (1 mg/kg, IV 1 mpk), the AUC(0-inf) turned out to be 194 ng·h/mL, the clearance was determined as 86.6 mL/min/kg, the half-life was 8.2 h and the Vd was 59.4 L/kg. For the same compound, in series [3] (10 mg/kg, PO 10 mpk), the area under the curve AUC(0-inf) amounted to 918 ng·h/mL, the highest level (Cmax) was 220 ng/mL, the Tmax amounted to 1.5 h and the half-life is 5.6 h. In series [3] (10 mg·kg^−1, PO 10 mpk vs IV 1 mpk), this compound displayed a bioavailability of 34.9%. The “half-life (in words)” value in series [3] (in vivo) is reported as “unexpected long half-life”. For the same compound, the half-maximal inhibitory concentration (IC50) in series [4] amounted to 9500 nM. The 50% inhibitory concentration (IC50) in series [5] was 2.8 nM.
